Target: T1, human GlyT1c transporter (Homo sapiens, UniProt P48067)
T1 construct: expressed in transfected cells; host or cells: CHO cells (recombinant; line hGlyT1c_5_CHO is named for the uptake assay)
T1 sequence (P48067 1-706): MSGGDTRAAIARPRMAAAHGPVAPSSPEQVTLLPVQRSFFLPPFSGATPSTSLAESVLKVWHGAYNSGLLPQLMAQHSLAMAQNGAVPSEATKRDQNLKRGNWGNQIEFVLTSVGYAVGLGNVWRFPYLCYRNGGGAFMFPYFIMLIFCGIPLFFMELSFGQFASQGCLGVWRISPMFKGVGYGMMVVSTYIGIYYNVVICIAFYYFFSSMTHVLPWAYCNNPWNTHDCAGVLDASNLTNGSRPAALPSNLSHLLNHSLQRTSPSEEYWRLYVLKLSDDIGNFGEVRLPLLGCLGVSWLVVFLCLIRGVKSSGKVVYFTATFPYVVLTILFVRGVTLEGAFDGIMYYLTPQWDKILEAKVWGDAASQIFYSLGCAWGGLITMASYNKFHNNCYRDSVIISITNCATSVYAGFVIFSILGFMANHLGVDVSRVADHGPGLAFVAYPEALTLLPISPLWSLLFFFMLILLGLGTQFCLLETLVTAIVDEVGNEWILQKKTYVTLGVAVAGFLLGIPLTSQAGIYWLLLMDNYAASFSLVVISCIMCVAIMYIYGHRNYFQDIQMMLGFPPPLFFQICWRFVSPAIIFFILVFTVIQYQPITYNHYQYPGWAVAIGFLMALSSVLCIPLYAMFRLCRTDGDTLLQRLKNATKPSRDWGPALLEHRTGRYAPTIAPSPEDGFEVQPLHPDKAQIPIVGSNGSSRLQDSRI
Assay: Radioligand binding assay using recombinant CHO cell membranes expressing human GlyT1
Conditions: radioligand binding, recombinant CHO cell membranes expressing human GlyT1c
From the text: 2. Radioligand binding assays using recombinant CHO cell membranes expressing human GlyT1: […]

Row | Compound | Ki
1 | Cn1cnc(S(=O)(=O)N2CC3c4ccccc4CCC3(NCc3ccc(C(F)(F)F)cc3Cl)C2)c1 (centres unmarked) [Example 890, N-[2-chloro-4-(trifluoromethyl)benzyl]-2-[(1-methyl-1H-imidazol-4-yl)sulfonyl]-1,2,3,4,5,9b-hexahydro-3aH-benzo[e]isoindol-3a-amine] | ≤ 100 nM
2 | (3R,4S)-4-(1,3-dioxan-2-yl)-N,N-dihexyl-1-[(1-methyl-1H-imidazol-4-yl)sulfonyl]pyrrolidin-3-amine [Example 909] | ≤ 1000 nM

From patent EP2970215B1, “PYRROLIDINE DERIVATIVES, PHARMACEUTICAL COMPOSITIONS CONTAINING THEM, AND THEIR USE IN THERAPY” (AbbVie Deutschland GmbH & Co. KG, priority 2013, dated 2014)
